Where a name gives a salt, the structure may show the parent alone. Peptide text beside a SMILES is read from it. * marks the point of attachment. Benzoyl(4-Br) = O=C(c1ccc(Br)cc1)*; Benzoyl(4-F) = O=C(c1ccc(F)cc1)*; Tfa = O=C(C(F)(F)F)*
How the values were obtained:
Type in all cases: binding
CAL PDZ domain (CALP) [1] = target: T1, CAL PDZ domain (CALP) (Homo sapiens, UniProt Q9HD26); experiment: Fluorescence polarization (FP) competition/displacement assay; conditions: for binding affinity stronger than iCAL36: FP displacement
T1 construct: made in house
Description: FP competition experiments were performed as previously described, [17].
For illustrative purposes, a logistic curve-fit is shown, but K I values and fractional reporter occupancy values were determined by least-squares fitting of the complete binding equation.

CAL PDZ domain (CALP) [2] = target: T1, CAL PDZ domain (CALP); experiment: Surface plasmon resonance (SPR), equilibrium analysis; conditions: SPR value relative to FP value
Description: SPR experiments were performed on a Biacore X100 Plus (GE Healthcare Life Sciences), with CALP covalently immobilized on a CM5 sensor chip. […] Sensorgrams were analyzed using the Biacore evaluation software. Experiments were performed in duplicate or triplicate (n≥2). A detailed description is provided in ref. [21].

CAL PDZ domain (CALP) [3] = target: T1, CAL PDZ domain (CALP); experiment: Isothermal titration calorimetry (ITC); conditions: ITC value relative to FP value
Description: ITC experiments were performed and analyzed in a manner similar to that described previously, [20]. Titrations were performed with a Nano ITC 2G (TA Instruments). In brief, for a typical titration, 100–320 µM CALP was loaded into the 943 µL sample cell, and 2–3 mM peptide placed in a 250 µL injector syringe. For [drawing 8] , titrations were performed with polyhistidine-tagged CALP. Peptide concentrations were adjusted based on the amount of protein, so the final ratio of peptide to protein ranged between 3∶1–4∶1. Each titration included an initial 1 or 2 µL injection followed by 5 or 10 µL injections performed at 180 s intervals, for a total of 25–50 injections. The stirring speed was 250 rpm, and experimental temperature was 25°C. Thermograms were analyzed using NanoAnalyze software (TA Instruments). Details are described in ref. [21].

change in binding affinity compared to iCAL36 (CAL PDZ domain (CALP) [1]; head-to-head FP displacement assays) | fold-deviation of K D from SPR from the value obtained by FP (CAL PDZ domain (CALP) [2]) | fold-deviation of K D from ITC from the value obtained by FP (CAL PDZ domain (CALP) [3]) | Compound | binding affinity stronger than iCAL36 (CAL PDZ domain (CALP) [1])
no significant change | – | – | CC[C@H](C)[C@H](NC(=O)[C@@H](NC(=O)[C@H](CO)NC(=O)[C@@H](NC(=O)[C@@H]1CCCN1C(=O)[C@H](Cc1c[nH]c2ccccc12)NC(=O)[C@H](CCCNC(=N)N)NC(=O)[C@H](CO)NC(=O)[C@H](CC(N)=O)NC(=O)[C@H](C)NC(C)=O)[C@@H](C)O)[C@@H](C)CC)C(=O)O [Ac-iCAL36] | –
– | (2.0) fold | (1.5) fold | CC[C@H](C)[C@H](NC(=O)[C@@H](NC(=O)[C@H](CO)NC(=O)[C@@H](NC(=O)[C@H](CCCCNC(C)=O)NC(=O)[C@H](Cc1c[nH]c2ccccc12)NC(=O)[C@H](CCCNC(=N)N)NC(=O)[C@H](CO)NC(=O)[C@H](CC(N)=O)NC(=O)[C@H](C)N)[C@@H](C)O)[C@@H](C)CC)C(=O)O [Peptide C00003] | –
– | (0.5) fold | – | CC[C@H](C)[C@H](NC(=O)[C@@H](NC(=O)[C@H](CO)NC(=O)[C@@H](NC(=O)[C@@H]1CCCN1C(=O)[C@H](CCCCNC(C)=O)NC(=O)[C@H](CCCNC(=N)N)NC(=O)[C@H](CO)NC(=O)[C@H](CC(N)=O)NC(=O)[C@H](C)N)[C@@H](C)O)[C@@H](C)CC)C(=O)O [Peptide C00004] | –
– | (2.4) fold | (1.1) fold | CC[C@H](C)[C@H](NC(=O)[C@H](CCCCNC(=O)c1ccc(F)cc1)NC(=O)[C@H](CO)NC(=O)[C@@H](NC(=O)[C@@H]1CCCN1C(=O)[C@H](Cc1c[nH]c2ccccc12)NC(=O)[C@H](CCCNC(=N)N)NC(=O)[C@H](CO)NC(=O)[C@H](CC(N)=O)NC(=O)[C@H](C)N)[C@@H](C)O)C(=O)O [Peptide C00006] (H-ANSRWPTSK(Benzoyl(4-F))I-OH) | ~2 fold
– | (1.6) fold | (2.4) fold | CC[C@H](C)[C@H](NC(=O)[C@H](CCCCNC(=O)C(F)(F)F)NC(=O)[C@H](CO)NC(=O)[C@@H](NC(=O)[C@@H]1CCCN1C(=O)[C@H](Cc1c[nH]c2ccccc12)NC(=O)[C@H](CCCNC(=N)N)NC(=O)[C@H](CO)NC(=O)[C@H](CC(N)=O)NC(=O)[C@H](C)N)[C@@H](C)O)C(=O)O [Peptide C00007] (H-ANSRWPTSK(Tfa)I-OH) | –
– | (0.7) fold | (0.5) fold | H-ANSRWPK(Ac)SII-OH [Peptide C00002] | –
– | (2.7) fold | (1.8) fold | H-ANSRWPTSK(Ac)I-OH [Peptide C00001] | –

Compound | change in binding affinity compared to iCAL36 (CAL PDZ domain (CALP) [1]; head-to-head FP displacement assays) | fold-deviation of K D from SPR from the value obtained by FP (CAL PDZ domain (CALP) [2]) | fold-deviation of K D from ITC from the value obtained by FP (CAL PDZ domain (CALP) [3]) | binding affinity stronger than iCAL36 (CAL PDZ domain (CALP) [1])
CC[C@H](C)[C@H](NC(=O)[C@H](CCCCNC(=O)c1ccc(Br)cc1)NC(=O)[C@H](CO)NC(=O)[C@@H](NC(=O)[C@@H]1CCCN1C(=O)[C@H](Cc1c[nH]c2ccccc12)NC(=O)[C@H](CCCNC(=N)N)NC(=O)[C@H](CO)NC(=O)[C@H](CC(N)=O)NC(=O)[C@H](C)N)[C@@H](C)O)C(=O)O [Peptide C00005] (H-ANSRWPTSK(Benzoyl(4-Br))I-OH) | – | (1.8) fold | (1.9) fold | ~2 fold

Reference: paper PMC4138078, “Chemically Modified Peptide Scaffolds Target the CFTR-Associated Ligand PDZ Domain” (PLoS ONE, 2014)
